≈ marks a conversion by molar mass, not a printed value. Bridge positions count the residues as written; N and C are the ends. Square brackets hold non-standard residues; d marks the D form. Ends that are not written are not given here. Peptide text beside a SMILES is read from it. R8 = C=CCCCCCC[C@@](C)(N)C(=O)O; S5 = C=CCCC[C@](C)(N)C(=O)O; Nle = CCCC[C@H](N)C(=O)O
Experiments:
human red blood cells = format: cell-based; settings: for % Hemolysis at 25 μg/ml: red cells of human, 1 h
How it was run: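 Washed human RBCs as 1% (v/v) suspension in phosphate-buffered saline incubated 1 h at 37° C with serially diluted peptides. Hemoglobin release in supernatant measured spectrophotometrically (570 nm), % hemolysis relative to untreated and 1% Triton-X100 controls; MHC defined as concentration giving less than 1% release.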

S. marcescens = format: cell-based
Procedure: Antimicrobial Activity Assay:
The following microbroth dilution protocol was adapted to determine the minimum inhibitory concentration (MIC) of each peptide. First, Mueller-Hinton broth (MHB) was passed through an anion exchange column to remove polyanionic species and generate refined MHB. […] Briefly, bacterial cells was grown overnight in refined MHB at 37° C. and then diluted and allowed to grow again for several hours. Serial dilutions of peptide stocks in water (10 μl) were prepared using clear round-bottom polypropylene 96-well plates. Then 90 μl of bacteria in refined MHB was added to give a final inoculum of 5×10^5 CFU/ml. The plates were then covered with porous tape to reduce evaporation, and incubated for 20-24 hours at 37° C. The MIC is the minimum peptide concentration at which no visible growth was observed.

B. cereus = format: cell-based, Bacillus cereus
How it was run: (§1)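 Microdilution MIC test in polyanion-depleted MHB, with a final inoculum of 5×10^5 CFU/ml and 20-24 h incubation at 37° C.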

E. coli = format: cell-based, Escherichia coli
How it was run: as §1

S. aureus = format: cell-based, Staphylococcus aureus
How it was run: as §1

P. aeruginosa = format: cell-based, Pseudomonas aeruginosa
How it was run: as §1

MIC S. marcescens (S. marcescens) | MIC B. cereus (B. cereus) | MIC E. coli (E. coli) | MIC S. aureus (S. aureus) | MIC P. aeruginosa (P. aeruginosa) | Compound | hemolytic activity (in words) (human red blood cells) | % Hemolysis at 25 μg/ml (human red blood cells)
>50 µg/mL | 3.1 µg/mL (≈ 1.25 µM) | 3.1 µg/mL (≈ 1.25 µM) | – | – | CCCC[C@H](NC(=O)[C@@H](NC(=O)[C@]1(C)CCCC=CCCCCCC[C@@](C)(NC(=O)[C@H](CCCCN)NC(=O)[C@H](CCCCN)NC(=O)[C@H](C)NC(=O)[C@H](C)NC(=O)[C@H](Cc2c[nH]cn2)NC(=O)[C@H](CC(C)C)NC(=O)[C@H](Cc2ccccc2)NC(=O)[C@H](CCCCN)NC(=O)CNC(=O)[C@@H](NC(=O)CN)[C@@H](C)CC)C(=O)N[C@@H](C)C(=O)N[C@@H](CCCCN)C(=O)N[C@@H](C)C(=O)N[C@@H](Cc2ccccc2)C(=O)N[C@@H](C(C)C)C(=O)N[C@@H](C)C(=O)N1)[C@@H](C)CC)C(=O)N[C@@H](CC(N)=O)C(=O)N[C@@H](CO)C(N)=O [MagStap 6] (H-GIGKFLHAAKK[R8]AKAFVA[S5]I[Nle]NS-NH2; staple 12-19; N-terminus assumed) | – | –
>50 µg/mL | 6.2 µg/mL (≈ 2.41 µM) | 6.2 µg/mL (≈ 2.41 µM) | – | – | CCCC[C@H](NC(=O)[C@]1(C)CCCC=CCCCCCC[C@@](C)(NC(=O)[C@H](Cc2ccccc2)NC(=O)[C@H](CCCCN)NC(=O)[C@H](CCCCN)NC(=O)[C@H](C)NC(=O)[C@H](C)NC(=O)[C@H](Cc2c[nH]cn2)NC(=O)[C@H](CC(C)C)NC(=O)[C@H](Cc2ccccc2)NC(=O)[C@H](CCCCN)NC(=O)CNC(=O)[C@@H](NC(=O)CN)[C@@H](C)CC)C(=O)N[C@@H](CCCCN)C(=O)N[C@@H](C)C(=O)N[C@@H](Cc2ccccc2)C(=O)N[C@@H](C(C)C)C(=O)N[C@@H](C)C(=O)N[C@@H](CCC(=O)O)C(=O)N1)C(=O)N[C@@H](CC(N)=O)C(=O)N[C@@H](CO)C(N)=O [MagStap 7] (H-GIGKFLHAAKKF[R8]KAFVAE[S5][Nle]NS-NH2; staple 13-20; N-terminus assumed) | – | –
– | 6.2 µg/mL | 3.1 µg/mL | 6.2 µg/mL | 3.1 µg/mL | GWGSFFKKAAHVGKHVGKAALTHYL-NH2 [Pleurocidin-NH2, reference compound] | – | 0.5%

Continued, compound first:

Compound | MIC S. marcescens (S. marcescens) | MIC B. cereus (B. cereus) | MIC E. coli (E. coli) | MIC S. aureus (S. aureus) | MIC P. aeruginosa (P. aeruginosa) | hemolytic activity (in words) (human red blood cells) | % Hemolysis at 25 μg/ml (human red blood cells)
CCCC[C@H](NC(=O)[C@@H](NC(=O)[C@H](CCC(=O)O)NC(=O)[C@H](C)NC(=O)[C@]1(C)CCCC=CCCCCCC[C@@](C)(NC(=O)[C@H](C)NC(=O)[C@H](C)NC(=O)[C@H](Cc2c[nH]cn2)NC(=O)[C@H](CC(C)C)NC(=O)[C@H](Cc2ccccc2)NC(=O)[C@H](CCCCN)NC(=O)CNC(=O)[C@@H](NC(=O)CN)[C@@H](C)CC)C(=O)N[C@@H](CCCCN)C(=O)N[C@@H](Cc2ccccc2)C(=O)N[C@@H](C)C(=O)N[C@@H](CCCCN)C(=O)N[C@@H](C)C(=O)N[C@@H](Cc2ccccc2)C(=O)N1)[C@@H](C)CC)C(=O)N[C@@H](CC(N)=O)C(=O)N[C@@H](CO)C(N)=O [MagStap 4] (H-GIGKFLHAA[R8]KFAKAF[S5]AEI[Nle]NS-NH2; staple 10-17; N-terminus assumed) | >50 µg/mL | 6.2 µg/mL (≈ 2.46 µM) | 12.5 µg/mL (≈ 4.95 µM) | – | – | highest hemolytic activity | –
CC(C)C[C@H](NC(=O)[C@H](Cc1ccc(O)cc1)NC(=O)[C@H](Cc1c[nH]cn1)NC(=O)[C@@H](NC(=O)[C@H](CC(C)C)NC(=O)[C@]1(C)CCCC=CCCC[C@](C)(NC(=O)[C@H](Cc2c[nH]cn2)NC(=O)[C@H](CCCCN)NC(=O)CNC(=O)[C@@H](NC(=O)[C@H](Cc2c[nH]cn2)NC(=O)[C@H](C)NC(=O)[C@H](C)NC(=O)[C@H](CCCCN)NC(=O)[C@H](CCCCN)NC(=O)[C@]2(C)CCCC=CCCC[C@](C)(NC(=O)CN)C(=O)NCC(=O)N[C@@H](CO)C(=O)N[C@@H](Cc3ccccc3)C(=O)N2)C(C)C)C(=O)NCC(=O)N[C@@H](CCCCN)C(=O)N[C@@H](C)C(=O)N1)[C@@H](C)O)C(N)=O [Pleu(i + 4)1, 15] (H-G[S5]GSF[S5]KKAAHVGKH[S5]GKA[S5]LTHYL-NH2; staple 2-6, 16-20; N-terminus assumed) | – | 3.1 µg/mL | 1.6 µg/mL | 1.6 µg/mL | 1.6 µg/mL | – | 88.2%

— patent publication US20200231638A1, “STABILIZED ANTI-MICROBIAL PEPTIDES” (priority 2015, published 2020)
